Results from patent US11109592B2, “Selective weed control methods” (Corteva Agriscience LLC, priority 2013, dated 2021).
Read-outs that look alike come from different tables or passages of the source.

Assays:
[1] = test system: certain members of the Amaranthaceae, Asteraceae, Lamiaceae, Rubiaceae, Papaveraceae and Brassicaceae families; experiment: Herbicidal activity (LD90) on plant families; format: in vivo; conditions: grams acid equivalent per hectare
[2] = test system: broadleaf weeds including cleavers (Galium aparine), chickweed (Stellaria media), pigweed (Amaranthus spp.), lamb's-quarters (Chenopodium album) and others; experiment: Efficacy on commercially relevant broadleaf weeds; format: in vivo; conditions: application rate of 2.5 to 10 g ae/ha
[3] = test system: sunflowers, sorghum, yellow mustard, Brassicaceae-family crops, and sugar beets; experiment: Overall crop safety, post-emergence application; format: in vivo; conditions: post-emergence application rates of ≤10 g ae/ha
[4] = test system: Juncea canola (Brassica juncea); conditions: for injury to Juncea canola, on average did not exceed: five field trials; for Percent (%) Crop Injury (Mean Value): B12-B14 crop stage
[5] = test system: spring turnip (Brassica rapa); conditions: for injury to turnip, on average did not exceed: three field trials; for Percent (%) Crop Injury (Mean Value): B12-B16 crop stage
[6] = test system: spring rutabaga (Brassica napus); conditions: for injury to rutabaga, on average did not exceed: three field trials; for Percent (%) Crop Injury (Mean Value): B12-B14 crop stage
[7] = test system: spring kale (Brassica oleracea); experiment: Field trial, crop injury to spring kale, post-emergence; format: in vivo; conditions: B12-B16 crop stage
Excerpt: Data from the trials on spring kale (Brassica oleracea) are summarized Table 4.

[8] = test system: Winfred forage brassica (Brassica rapa × oleracea); experiment: Field trial, crop injury to Winfred forage brassica, post-emergence; format: in vivo; conditions: B14-B16 crop stage, Australia
[9] = test system: common lambsquarters (Chenopodium album L.); experiment: Field trial in sugar beet, visual control of common lambsquarters; format: in vivo; conditions: 36 days following last application
Excerpt: (§1) As used herein, selective post-emergent control of undesirable vegetation means preventing, reducing, killing, or otherwise adversely modifying the development of the undesirable vegetation in the presence of crop plants with limited adverse effect on the crop plants. For example, a broadleaf weed control of 80% (rated visually) with crop injury of less than or equal to 20%, rated visually, would constitute selective control. In some embodiments the adverse effect on crop plants is limited to less than 10% visually rated crop injury. […] Visual weed control is a composite rating accounting for reductions in pest plant biomass and/or stand reduction.
(§2) Treatments 4 and 5 were split applications at the two indicated growth stages.

[10] = test system: wild buckwheat (Polygonum convolvulus L.); experiment: Field trial in sugar beet, visual control of wild buckwheat; format: in vivo; conditions: 36 days following last application
Excerpt: as §1, §2

[11] = test system: spring sorghum (Sorghum vulgare); experiment: Field trial, crop injury to spring sorghum, post-emergence; conditions: B17-B22 crop stage
[12] = test system: spring sunflower (Helianthus annuus); experiment: Field trial, crop injury to spring sunflower, post-emergence; conditions: B12-B14 crop stage, Australia
[13] = test system: yellow mustard (Sinapis alba); experiment: Field trial, crop injury to and yield of yellow mustard, post-emergence; conditions: B14-B15 crop stage
[14] = rate 2.5 (g ae/ha), 1 week after application
[15] = rate 2.5, 3-5 weeks after application
[16] = rate 5, 1 week after application
[17] = rate 5, 3-5 weeks after application
[18] = rate 10, 1 week after application
[19] = rate 10, 3-5 weeks after application
[20] = rate 20, 1 week after application
[21] = rate 2.5, 6-10 weeks after application
[22] = rate 5, 6-10 weeks after application
[23] = rate 10, 6-10 weeks after application
[24] = rate 20, 3-5 weeks after application
[25] = treatment 1: 1.0 g ae/ha at BEAVA stage B12-B16
[26] = treatment 2: 2.0 g ae/ha at BEAVA stage B12-B16
[27] = treatment 3: 3.0 g ae/ha at BEAVA stage B12-B16
[28] = treatment 4: split application 0.5 g ae/ha at B10-B12 and 0.5 g ae/ha at B12-B16
[29] = treatment 5: split application 1.0 g ae/ha at B10-B12 and 1.0 g ae/ha at B12-B16
[30] = rate 20, 6-10 weeks after application
[31] = rate 2.5 (g ae/ha), 3-5 weeks after application

COc1c(Cl)ccc(-c2cc(N)c(Cl)c(C(=O)O)n2)c1F [Compound I, 4-amino-3-chloro-6-(4-chloro-2-fluoro-3-methoxyphenyl)pyridine-2-carboxylic acid]
LD90 [1]: ≤ 10 g ae/ha
efficacy on commercially relevant broadleaf weeds [2]: highly efficacious
crop injury [3]: little to no crop injury
injury to Juncea canola, on average did not exceed ([4]; 2.5 g ae/ha): ≤ 7.5%
injury to Juncea canola, on average did not exceed ([4]; 5 g ae/ha): ≤ 11.3%
injury to Juncea canola, on average did not exceed ([4]; 10 g ae/ha): ≤ 5.5%
injury to turnip, on average did not exceed ([5]; 2.5 g ae/ha): ≤ 2.5%
injury to turnip, on average did not exceed ([5]; 5 g ae/ha): ≤ 5%
injury to turnip, on average did not exceed ([5]; 10 g ae/ha): ≤ 7.5%
injury to rutabaga, on average did not exceed ([6]; 2.5 g ae/ha): ≤ 6.3%
injury to rutabaga, on average did not exceed ([6]; 5 g ae/ha): ≤ 10%
injury to rutabaga, on average did not exceed ([6]; 10 g ae/ha): ≤ 15%

COC(=O)c1nc(-c2ccc(Cl)c(OC)c2F)cc(N)c1Cl [4-Amino-3-chloro-6-(4-chloro-2-fluoro-3-methoxyphenyl)pyridine-2-carboxylic acid methyl ester]
Percent (%) Crop Injury (Mean Value) [7, 14]: 2.5%
Percent (%) Crop Injury (Mean Value) [7, 15]: 0%
Percent (%) Crop Injury (Mean Value) [7, 16]: 1.3%
Percent (%) Crop Injury (Mean Value) [7, 17]: 1.3%
Percent (%) Crop Injury (Mean Value) [7, 18]: 2.5%
Percent (%) Crop Injury (Mean Value) [7, 19]: 3.8%
Percent (%) Crop Injury (Mean Value) [7, 20]: 15%
Percent (%) Crop Injury (Mean Value) [8, 21]: 7.5%
Percent (%) Crop Injury (Mean Value) [8, 17]: 9.2%
Percent (%) Crop Injury (Mean Value) [8, 22]: 7.5%
Percent (%) Crop Injury (Mean Value) [8, 19]: 8.8%
Percent (%) Crop Injury (Mean Value) [8, 23]: 0%
Percent (%) Crop Injury (Mean Value) [8, 24]: 11.3%
Percent (%) Visual Control CHEAL [9, 25]: 35%
Percent (%) Visual Control CHEAL [9, 26]: 98%
Percent (%) Visual Control CHEAL [9, 27]: 95.8%
Percent (%) Visual Control CHEAL [9, 28]: 30%
Percent (%) Visual Control CHEAL [9, 29]: 96.8%
Percent (%) Visual Control POLCO [10, 25]: 5%
Percent (%) Visual Control POLCO [10, 26]: 22.5%
Percent (%) Visual Control POLCO [10, 27]: 60%
Percent (%) Visual Control POLCO [10, 28]: 20%
Percent (%) Visual Control POLCO [10, 29]: 35%
Percent (%) Crop Injury (Mean Value) [4, 14]: 2.5%
Percent (%) Crop Injury (Mean Value) [4, 15]: 7.5%
Percent (%) Crop Injury (Mean Value) [4, 21]: 5%
Percent (%) Crop Injury (Mean Value) [4, 16]: 3.8%
Percent (%) Crop Injury (Mean Value) [4, 17]: 10.5%
Percent (%) Crop Injury (Mean Value) [4, 22]: 11.3%
Percent (%) Crop Injury (Mean Value) [4, 18]: 3.8%
Percent (%) Crop Injury (Mean Value) [4, 19]: 5.5%
Percent (%) Crop Injury (Mean Value) [4, 23]: 3.8%
Percent (%) Crop Injury (Mean Value) [4, 20]: 30%
Percent (%) Crop Injury (Mean Value) [4, 24]: 13.8%
Percent (%) Crop Injury (Mean Value) [4, 30]: 0%
Percent (%) Crop Injury (Mean Value) [5, 14]: 2.5%
Percent (%) Crop Injury (Mean Value) [5, 15]: 2.5%
Percent (%) Crop Injury (Mean Value) [5, 16]: 5%
Percent (%) Crop Injury (Mean Value) [5, 17]: 1.3%
Percent (%) Crop Injury (Mean Value) [5, 18]: 7.5%
Percent (%) Crop Injury (Mean Value) [5, 19]: 7.5%
Percent (%) Crop Injury (Mean Value) [5, 24]: 7.5%
Percent (%) Crop Injury (Mean Value) [6, 14]: 6.3%
Percent (%) Crop Injury (Mean Value) [6, 15]: 3.8%
Percent (%) Crop Injury (Mean Value) [6, 16]: 10%
Percent (%) Crop Injury (Mean Value) [6, 17]: 3.3%
Percent (%) Crop Injury (Mean Value) [6, 18]: 15%
Percent (%) Crop Injury (Mean Value) [6, 19]: 7.5%
Percent (%) Crop Injury (Mean Value) [6, 20]: 27.5%
Percent (%) Crop Injury (Mean Value) [6, 24]: 15%
Percent (%) Crop Injury (Mean Value) [11, 31]: 8.3%
Percent (%) Crop Injury (Mean Value) [11, 21]: 13.3%
Percent (%) Crop Injury (Mean Value) [11, 17]: 11.7%
Percent (%) Crop Injury (Mean Value) [11, 22]: 18.3%
Percent (%) Crop Injury (Mean Value) [11, 19]: 18.3%
Percent (%) Crop Injury (Mean Value) [11, 23]: 15%
Percent (%) Crop Injury (Mean Value) [11, 24]: 13.3%
Percent (%) Crop Injury (Mean Value) [11, 30]: 15%
Percent (%) Crop Injury (Mean Value) [12, 31]: 6.7%
Percent (%) Crop Injury (Mean Value) [12, 21]: 6.7%
Percent (%) Crop Injury (Mean Value) [12, 17]: 13.3%
Percent (%) Crop Injury (Mean Value) [12, 22]: 11.7%
Percent (%) Crop Injury (Mean Value) [12, 19]: 15%
Percent (%) Crop Injury (Mean Value) [12, 23]: 8.3%
Percent (%) Crop Injury (Mean Value) [12, 24]: 22.3%
Percent (%) Crop Injury (Mean Value) [12, 30]: 6.7%
Percent (%) Crop Injury (Mean Value of Four Observations) [13, 14]: 8.5%
Percent (%) Crop Injury (Mean Value of Four Observations) ([13]; rate 2.5, 2 weeks after application): 4.8%
Percent (%) Crop Injury (Mean Value of Four Observations) [13, 15]: 4.5%
Percent (%) Crop Injury (Mean Value of Four Observations) [13, 16]: 14.3%
Percent (%) Crop Injury (Mean Value of Four Observations) ([13]; rate 5, 2 weeks after application): 10%
Percent (%) Crop Injury (Mean Value of Four Observations) [13, 17]: 7.5%
Percent (%) Crop Injury (Mean Value of Four Observations) [13, 18]: 21.3%
Percent (%) Crop Injury (Mean Value of Four Observations) ([13]; rate 10, 2 weeks after application): 25%
Percent (%) Crop Injury (Mean Value of Four Observations) [13, 19]: 16.3%
Percent (%) Crop Injury (Mean Value of Four Observations) [13, 20]: 23.8%
Percent (%) Crop Injury (Mean Value of Four Observations) ([13]; rate 20, 2 weeks after application): 35%
Percent (%) Crop Injury (Mean Value of Four Observations) [13, 24]: 25%
